Measurements published in patent publication US20030087395A1, “Cardiotrophin-like cytokine” (Human Genome Sciences, Inc., priority 1997, published 2003).

Assays:
Jurkat T-cells = assay: Jurkat:GAS-SEAP screening assay for T-cell activity; assay type: cell-based; conditions: 100 Unit/ml, typically observed
Method: The following protocol is used to assess T-cell activity of CLC by determining whether CLC supernatant proliferates and/or differentiates T-cells. T-cell activity is assessed using the GAS/SEAP/Neo construct produced in Example 6. Thus, factors that increase SEAP activity indicate the ability to activate the Jaks-STATs signal transduction pathway. The T-cell used in this assay is Jurkat T-cells (ATCC Accession No. TIB-152), although Molt-3 cells (ATCC Accession No. CRL-1552) and Molt-4 cells (ATCC Accession No. CRL-1582) cells can also be used.
Jurkat T-cells are lymphoblastic CD4+ Th1 helper cells. In order to generate stable cell lines, approximately 2 million Jurkat cells are transfected with the GAS-SEAP/neo vector using DMRIE-C (Life Technologies; transfection procedure described below). The transfected cells are seeded to a density of approximately 20,000 cells per well and transfectants resistant to 1 mg/ml geneticin selected. Resistant colonies are expanded and then tested for their response to increasing concentrations of interferon gamma.
Specifically, the following protocol will yield sufficient cells for 75 wells containing 200 μl of cells. Thus, it is either scaled up, or performed in multiple to generate sufficient cells for multiple 96 well plates. Jurkat cells are maintained in RPMI+10% serum with 1% Pen-Strep. […]

U937 cells = assay: GAS-SEAP/U937 assay identifying myeloid activity; assay type: cell-based; conditions: 100 Unit/ml; U937 GAS-SEAP; typically observed
Method: The following protocol is used to assess myeloid activity of CLC by determining whether CLC proliferates and/or differentiates myeloid cells. Myeloid cell activity is assessed using the GAS/SEAP/Neo construct produced in Example 6. Thus, factors that increase SEAP activity indicate the ability to activate the Jaks-STATS signal transduction pathway. The myeloid cell used in this assay is U937, a pre-monocyte cell line, although TF-1, HL60, or KG1 can be used.
To transiently transfect U937 cells with the GAS/SEAP/Neo construct produced in Example 6, a DEAE-Dextran method (Kharbanda, et. al., Cell Growth & Differentiation 5:259-265 (1994)) is used. First, harvest 2×10^7 U937 cells and wash with PBS. The U937 cells are usually grown in RPMI 1640 medium containing 10% heat-inactivated fetal bovine serum (FBS) supplemented with 100 units/ml penicillin and […] streptomycin.
Next, suspend the cells in 1 ml of 20 mM Tris-HCl (pH 7.4) buffer containing 0.5 mg/ml DEAE-Dextran, 8 ug GAS-SEAP2 plasmid DNA, 140 mM NaCl, 5 mM KCl, 375 μM Na2HPO47H2O, […], and 675 μM CaCl2. Incubate at 37° C. for 45 min.
Wash the cells with RPMI 1640 medium containing 10% FBS and then resuspend in 10 ml complete medium and incubate at 37° C. for 36 hr.
The GAS-SEAP/U937 stable cells are obtained by growing the cells in 400 μg/ml G418. […]

GAS or ISRE = conditions: element bound; adapted from Schidler and Darnell review; cited from earlier work
STATS = conditions: numbers of the STATs activated; adapted from Schidler and Darnell review; cited from earlier work
M1 cells [1] = assay: M1 cell proliferation by BrdU incorporation; assay type: cell-based; conditions: dose of 100 μL, 72 hours
Method: The effect of CLC on cellular proliferation can be assayed in M1 cells by BrdU incorporation. 1×10^4 cells/100 μL are dispensed into 96-well cell culture plates and labeled with 10 μL BrdU. CLC is added to the cells at several doses (0, 5, 25, and 100 μL) and LIF is added to the cells as a positive control at a dose of 100 μL. The cells are allowed to grow for 72 hours at 37° C. The amount of BrdU incorporation is determined by the Cell Proliferation ELISA BrdU colorimetric kit (Boehringer Mannheim).

M1 cells [2] = assay: Protein tyrosine phosphorylation after anti-gp130 immunoprecipitation; assay type: cell-based; conditions: M1 cells treated with CLC or LIF supernatant; band of apparent molecular mass 32 kDa
Method: Because of the wide range of known factors capable of stimulating tyrosine kinase activity, identifying whether CLC or a molecule induced by CLC is capable of activating tyrosine kinase signal transduction pathways is of interest. Therefore, the following protocol is designed to identify such molecules capable of activating the tyrosine kinase signal transduction pathways.
Seed NIH-3T3 cells in 15 cm^2 cell culture plates in DMEM supplemented with Pen/Strep, 10% FBS, 25 mM Hepes. […] At the point the experiment begins, the cells should be 80-90% confluent. Collect M1 cells in 50 ml tube and centrifuge 1000 rpm for 5 min. Resuspend the cell pellet in “quiescing medium” which is RPMI supplemented with Pen/Strep, glutamine. (It is important to note that quiescing medium contains neither serum nor growth factors.) Centrifuge again at 1000 rpm for 5 min to wash the cells. Again, resuspend the cells in quiescing medium. Incubate the M1 cells in quiescing medium for 16 hours at 37° C.
Pre-warm quiescing medium (for Ml cells) and a metal tube rack to 37° C. Pre-cool quiescing media (for NIH-3T3 cells) and sterile Eppendorf tubes containing 0.5 ml of sample. […] Resuspend M1 cells to 5.0×10^7 cells per 0.5 ml quiescing media. Place all tubes on per warmed metal rack and leave at 37° C. until ready to begin. Add samples to these pre-aliquoted tubes. […]

Row | Substance | induction of SEAP in positive control wells (Jurkat T-cells) | induction of SEAP in positive control wells (U937 cells) | GAS or ISRE (GAS or ISRE) | STATS (STATS) | inhibition of M1 cell proliferation with respect to the negative control (M1 cells [1]) [fold] | band of tyrosine-phosphorylated protein in cell extracts (M1 cells [2])
1 | interferon gamma: positive control known to activate Jurkat T cells and U937 cells [reference compound] | Over 30 fold | Over 30 fold | GAS | 1 | – | –
2 | LIF: leukemia inhibitory factor, IL-6 family cytokine used as positive control for CLC [reference compound] | – | – | – | 1,3 | 4.8 | produced a band of phosphorylated protein
